Where a SMILES comes first, the peptide text is derived from it. [ ]: non-standard residue; d: D form. Phe(3-CN) = N#Cc1cccc(C[CH](N)C(=O)O)c1; Phe(2-CN) = N#Cc1ccccc1C[CH](N)C(=O)O; 1Nal = N[CH](Cc1cccc2ccccc12)C(=O)O
Assays:
hPin1 = hPin1 (Homo sapiens, UniProt Q13526); test: protease-coupled PPIase assay, hPin1; type: biochemical; settings: 6 nM hPin1; substrate Ac-Ala-Ala-Ser(PO3H2)-Pro-Arg-pNA, trypsin; 35 mM HEPES pH 7.8, 6° C; read-out: Target T-1 (hPin1), IC50 class
LpCyp18 = LpCyp18 (Legionella pneumophila, UniProt Q5ZRZ4); test: biochemical
hCyp18 = hCyp18 (Homo sapiens, UniProt P62937); test: protease-coupled PPIase assay, hCyp18; type: biochemical; settings: 10 nM hCyp18; substrate Suc-Ala-Phe-Pro-Phe-pNA, α-chymotrypsin; 35 mM HEPES pH 7.8, 6° C; read-out: Target T-3 (hCyp18), IC50 class
hFKBP12 = hFKBP12 (Homo sapiens, UniProt P62942); test: protease-coupled PPIase assay, hFKBP12; type: biochemical; settings: 20 nM hFKBP12; substrate Suc-Ala-Phe-Pro-Phe-pNA, α-chymotrypsin; 35 mM HEPES pH 7.8, 6° C; read-out: Target T-2 (hFKBP12), IC50 class
EcParvulin = EcParvulin (Escherichia coli, UniProt P0A9L5); test: protease-coupled PPIase assay, EcParvulin; type: biochemical; settings: 20 nM EcParvulin; substrate Suc-Ala-Phe-Pro-Phe-pNA, α-chymotrypsin; 35 mM HEPES pH 7.8, 6° C; read-out: Target T-5 (EcParv), IC50 class
Sequence of EcParvulin (P0A9L5 whole entry): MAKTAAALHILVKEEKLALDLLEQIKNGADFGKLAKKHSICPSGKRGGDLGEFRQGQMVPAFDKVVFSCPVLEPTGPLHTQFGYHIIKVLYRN

Sequence of hPin1 (Q13526 whole entry): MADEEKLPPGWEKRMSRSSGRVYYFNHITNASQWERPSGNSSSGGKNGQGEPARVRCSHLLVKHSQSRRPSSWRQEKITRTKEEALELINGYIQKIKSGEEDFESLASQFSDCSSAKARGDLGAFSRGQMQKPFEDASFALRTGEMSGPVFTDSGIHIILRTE
Sequence of hFKBP12 (P62942 whole entry): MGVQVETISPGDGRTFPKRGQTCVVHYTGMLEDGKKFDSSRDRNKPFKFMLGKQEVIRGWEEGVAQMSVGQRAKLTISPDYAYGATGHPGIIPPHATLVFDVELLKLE
Sequence of LpCyp18 (Q5ZRZ4 1-164): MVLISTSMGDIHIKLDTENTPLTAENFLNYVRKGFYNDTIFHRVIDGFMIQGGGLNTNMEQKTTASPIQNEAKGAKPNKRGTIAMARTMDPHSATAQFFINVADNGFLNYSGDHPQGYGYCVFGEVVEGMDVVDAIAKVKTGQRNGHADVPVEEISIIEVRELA
Sequence of hCyp18 (P62937 whole entry): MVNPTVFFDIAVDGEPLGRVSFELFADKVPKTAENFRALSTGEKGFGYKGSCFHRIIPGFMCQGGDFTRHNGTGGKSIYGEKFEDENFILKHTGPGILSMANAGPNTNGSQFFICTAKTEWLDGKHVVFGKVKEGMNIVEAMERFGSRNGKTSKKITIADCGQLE

For CCNC(=S)NC(Cc1ccc2ccccc2c1)C(=O)NCCC#N (stereo not drawn) [Compound 1], the IC50 (hPin1) was less than 5 µM, the IC50 (LpCyp18) was greater than 100 µM and the IC50 (hCyp18) was greater than 100 µM. For the same molecule, the IC50 (hFKBP12) was greater than 100 µM.

Work on N#CCCNC(=O)[C@H](Cc1csc2ccccc12)NC(=S)Nc1ccc(SC(F)(F)F)cc1 [Compound 2] yielded an IC50 (hPin1) of 5 to 10 µM, an IC50 (LpCyp18) greater than 100 µM and an IC50 (hCyp18) greater than 100 µM. It also gave an IC50 (hFKBP12) greater than 100 µM.

N#CCCNS(=O)(=O)Cc1ccccc1 [Compound 3] showed an IC50 (hPin1) of 5 to 10 µM, an IC50 (LpCyp18) greater than 100 µM and an IC50 (hCyp18) greater than 100 µM. The IC50 (hFKBP12) was greater than 100 µM.

With CCc1ccc(NC(=S)NCCC#N)cc1 [Compound 5] the IC50 (hPin1) was less than 5 µM, the IC50 (LpCyp18) was greater than 100 µM and the IC50 (hCyp18) was greater than 100 µM. The IC50 (hFKBP12) was greater than 100 µM.

CC(C)CC(NC(=O)C1CCCN1CC#N)C(N)=O (stereo not drawn) [Compound 6] showed an IC50 (hPin1) of 5 to 10 µM, an IC50 (LpCyp18) greater than 100 µM and an IC50 (hCyp18) greater than 100 µM. For the same molecule, the IC50 (hFKBP12) was greater than 100 µM.

CN(C)c1ccc(N=Nc2ccc(S(=O)(=O)NCCC#N)cc2)cc1 [Compound 7] showed an IC50 (hPin1) of 5 to 10 µM, an IC50 (LpCyp18) greater than 100 µM and an IC50 (hCyp18) greater than 100 µM. It also gave an IC50 (hFKBP12) greater than 100 µM.

CC(=O)NC(Cc1cccc2ccccc12)C(=O)NC(Cc1ccccc1C#N)C(N)=O (stereo not drawn) [Compound 8] (Ac-[1Nal]-[Phe(2-CN)]-NH2; configuration not given here) gave an IC50 (hPin1) of less than 5 µM, an IC50 (LpCyp18) greater than 100 µM and an IC50 (hCyp18) greater than 100 µM. For the same molecule, the IC50 (hFKBP12) was greater than 100 µM.

Work on CC(=O)NC(Cc1cccc2ccccc12)C(=O)NC(Cc1cccc(C#N)c1)C(N)=O (stereo not drawn) [Compound 9] (Ac-[1Nal]-[Phe(3-CN)]-NH2; configuration not given here) yielded an IC50 (hPin1) of 5 to 10 µM, an IC50 (LpCyp18) greater than 100 µM and an IC50 (EcParvulin) of 5 to 10 µM. The IC50 (hCyp18) was greater than 100 µM and the IC50 (hFKBP12) was greater than 100 µM.

From patent US20060252813A1, “Apparatus for curing a composite laminate” (priority 2002, published 2006)
